Results on one compound are retold here after paper PMC6268357, “Synthesis and Biological Evaluation of New Ligustrazine Derivatives as Anti-Tumor Agents” (Molecules, 2012).

The test system of series [1] is A2780 human cancer cell line. Kind of series: MTT anti-proliferation assay, A2780. In kind it is cell-based. Particulars: Homo sapiens, A2780; MTT, 96 h exposure; maximal tested concentration 10.0 ig/mL; read-out: IC50 A2780. The protocol: (§1) The cytotoxicities of these compounds were tested on five cancer cell lines by the standard MTT assay. […] The growing tumor cells at a density 10^4 cells/mL were exposed to various concentrations of the tested drugs and incubated in a 96-well microtiter plate for 96 h (37 °C, 5% CO2). After MTT solution (20 μL, 5 mg/mL) was added to each well, the plate was incubated for a further 4 h. Then the media was removed. Formazan crystals were dissolved with DMSO (150 μL). After mixing well, the absorbance was quantified at 570 nm with a BIORAD 550 spectrophotometer. Wells containing no drugs were used as blanks. […] Tumor cell growth inhibitory rate was calculated in the following equation (1): [drawing 3] (1)
On the technique in general: Formazan colour is commonly taken as a measure of viable cells.

Series [2] concerns HCT-8 human cancer cell line. Kind of series: MTT anti-proliferation assay, HCT-8. The format is cell-based. The following applies: Homo sapiens, HCT-8; MTT, 96 h exposure; maximal tested concentration 10.0 ig/mL; read-out: IC50 HCT-8. As to the method: as §1
Series [3] relates to BGC-823 human cancer cell line. Kind of series: MTT anti-proliferation assay, BGC-823. The format is cell-based. The following applies: Homo sapiens, BGC-823; MTT, 96 h exposure; maximal tested concentration 10.0 ig/mL; read-out: IC50 BGC-823. As to the method: as §1
Series [4] has as its system chick chorioallantoic membrane (CAM). Kind of series: Chick chorioallantoic membrane (CAM) angiogenesis assay. The following applies: for Number of microvessels on CAM, treatment (mean ± s): n = 6, implanted day 7, read day 11, microvessels 1 to 100 μm in diameter. The format is in vivo, White Leghorn chicken. As to the method: Fertilized White Leghorn chicken eggs, provided by the Chinese Academy of Agricultural Sciences, were placed in an incubator as soon as embryogenesis started and were kept under constant humidity of 65% at 37 °C. On day 7, a square window was opened on the shell and physiological saline (0.1 mL) was injected in to detach the shell membrane. Then gelatin sponges carrying the TMP stimulator derivatives at 10 μg/egg and 40 μg/egg were implanted, respectively. The control group was treated with physiological saline. The windows were sealed with medical adhesive tape and the incubation went on till the experiment day. The above steps were performed under sterile conditions. On the 11th day, the tapes were removed and the entire CAM was detached after tissue fixation with methanol/acetone (1:1, v/v). Then we used computer-assisted image tracking to obtain absolute values for the number of microvessels which were 1 to 100 μm in diameter. Data were analyzed using the t-test option of the of Statistics Analysis System, the values were expressed as mean ± s of 6 observations and P < 0.05 was considered significant.

Series [5] deals with Bel-7402 human cancer cell line. Description: MTT anti-proliferation assay, Bel-7402. In kind it is cell-based. The following applies: Homo sapiens, Bel-7402; MTT, 96 h exposure; maximal tested concentration 10.0 ig/mL; read-out: IC50 Bel 7402. The protocol:
as §1

In a further series the test system is Kunming mice. Description: Acute toxicity by oral administration in mice. In kind it is in vivo. The following applies: oral (gavage) 3 g/kg in bean oil, observed two weeks. As to the method: (§2) Kunming mice (Beijing Vital River Laboratory Animal Technology Company Limited, China) of both sexes, weighing 18–22 g, were divided into […] matched in weight and size. The mice were placed in cages and kept under standard environmental conditions with a standard rodent diet and water ad libitum under a 12 h light-dark cycle. They were deprived of food for 24 h but allowed free access to tap water throughout the experiments. This research was carried out in accordance with the “Regulation for the Administration of Affairs Concerning Experimental Animals” (State Council of China, 1988).
(§3) The maximum suspended dose (75 mg/mL) of 5 was prepared in bean oil solution, then one group of 20 mice of both sexes were administered the maximum tolerated dose (0.4 mL/10 g) by oral administration. The other 20 mice, the control group, were gave bean oil (0.4 mL/10 g) via gavage.The general behavior of the mice was observed continuously for 1 h after the treatment and then intermittently for 4 h, and thereafter over a period of 24 h. The mice were further observed for up to 14 days following treatment for any signs of toxicity and deaths, and the latency of death. Behavioral, toxic effects and mortality response were recorded.

A short description of series [6]: Acute toxicity by oral administration in mice. In kind it is in vivo. The following applies: both sexes, Kunming, mouse, in vivo, 3 g/kg, oral administration. As to the method:
as §2, §3

In series [7] the test system is A-549 human cancer cell line. Kind of series: MTT anti-proliferation assay, A549. In kind it is cell-based. Particulars: Homo sapiens, A549; MTT, 96 h exposure; maximal tested concentration 10.0 ig/mL; read-out: IC50 A549. As to the method: as §1

≈ marks a conversion by molar mass, not a printed value. Entries after “also recorded” stand apart in the source; their conditions may differ.

Broadly, the IC50 is the concentration that inhibits the measured activity by half. Broadly, the LD50 is the dose at which mortality reaches 50%. Low values mean a more toxic substance, high ones a less toxic substance. Regarding `Cc1nc(C)c(COC(=O)CC[C@@H](C)C2CCC3C4CCC5C[C@H](O)CCC5(C)C4C[C@H](O)C32C)nc1C` (stereo partly drawn) [Compound 5, 3 α,12α-Dihydroxy-5β-dholanic acid-3,5,6-trimethylpyrazin-2-methyl ester], the IC50 in series [1] is 6.62 µg/mL (≈ 12.6 µM); in series [2], 7.43 µg/mL (≈ 14.1 µM); in series [3], 6.66 µg/mL (≈ 12.6 µM); in series [5], 8.01 µg/mL (≈ 15.2 µM); in series [7], 6.69 µg/mL (≈ 12.7 µM). In addition, the “Number of microvessels on CAM, treatment (mean ± s)” value in series [4] (dose 10 μg/egg) amounted to 4.8 ± 3.71; in series [4] (dose 40 μg/egg), 7.5 ± 3.40. Besides, the “Anti-angiogenesis effect on CAM (in words)” value in series [4] (doses of 10 μg/egg and 40 μg/egg) is “dramatically block the growth of new vessels”. Also, the “Deaths or signs of toxicity” value with Kunming mice is “no deaths or signs of toxicity observed; also recorded: no toxicity”. Besides, the LD50 at 14 days in series [6] was > 3000 mg/kg. The MTD at 14 days in series [6] (read-out: Maximum tolerated dose) turned out to be 3000 mg/kg.
